Measured values reported in patent US10689458B2, “Site specific HER2 antibody drug conjugates” (Pfizer Inc., priority 2015, dated 2020).
“Also recorded” adds a separate entry of the source. Like-named read-outs stand apart in the source and are kept apart here. Square brackets hold non-standard residues; d marks the D form. Peptide text beside a SMILES is read from it. * marks the point of attachment. Dolaproine = CO[C@@H]([C@@H]1CCCN1)[C@@H](C)C(=O)O; Dil = CC[C@H](C)[C@H](NC)[C@@H](CC(=O)O)OC; Doe = c1ccc(C[C@H](N*)c2nccs2)cc1; Aib = CC(C)(N)C(=O)O

Assays:
parental N87 cells = assay: Cytotoxicity on parental N87 cells (CellTiter Glo, 96 hours); type: cell-based; conditions: free payload, N87 cell line, read-out: Sensitivity to free payload (IC50), N87
Protocol: (§1) Cells were incubated for 96 hours in a humidified 37° C./5% CO2 incubator.

[1] = test system: T-DM1 resistant cells (N87-TDM); assay: Cytotoxicity on cells relapsed from T-DM1 treatment in vivo (CellTiter Glo, 96 hours); type: cell-based; conditions: for IC50: 96 h; for sensitivity of cells relapsed from T-DM1 treatment (in words): compared to parental N87
Protocol: as §1

N87-TM cells = assay: Cytotoxicity on T-DM1 resistant cells made in vitro, population not specified (MTS, 4 days); type: cell-based; conditions: N87-TM versus N87-parental
Protocol: (§2) N87 cells were passaged into two separate flasks and each flask was treated identically with respect to the resistance-generation protocol to enable biological duplicates. […] The procedure was intended to simulate the chronic, multi-cycle (on/off) dosing at maximally tolerated doses typically used for cytotoxic therapeutics in the clinic, followed by a recovery period. […] Data were collected from various thawed cryopreserved populations derived from a single selection, over approximately 1-2 years after model development to ensure consistency in the results.
(§3) ADCs were prepared as indicated in Example 3. Unconjugated maytansine analog (DM1) and auristatin analogs were prepared by Pfizer Worldwide Medicinal Chemistry (Groton, Conn.). Other standard-of-care chemotherapeutics were purchased from Sigma (St. Louis, Mo.). Cells were seeded in 96-well plates at low density, then treated the following day with ADCs and unconjugated payloads at 3-fold serial dilutions at 10 concentrations in duplicate. Cells were incubated for 4 days in a humidified 37° C./5% CO2 incubator. The plates were harvested by incubating with CellTiter® 96 AQueous One MTS Solution (Promega, Madison, Wis.) for 1.5 hours and absorbance measured on a Victor plate reader (Perkin-Elmer, Waltham, Mass.) at wavelength 490 nm. IC50 values were calculated using a four-parameter logistic model with XLfit (IDBS, Bridgewater, N.J.).

[2] = test system: GA0044 patient-derived xenografts; assay: GA0044 patient-derived gastric cancer xenograft model; type: in vivo, mouse; conditions: IV Q4dx4, dose not stated
N87 cells = conditions: read-out: IC80, payload concentration, approximate
Protocol: as §2, §3

N87 xenografts = assay: T-DM1 resistance generated in vivo in N87 xenografts and follow-on treatment; set-up: species or system mouse; conditions: […] weekly, n=20
Protocol: Tumors were measured twice per week or weekly and mass calculated as volume=(width×width×length)/2.

[3] = test system: 144580 breast patient-derived xenografts; conditions: all doses tested (1, 5, 3 and 6 mg/kg), IV Q4dx4
Protocol: (§4) For each model described below the first dose was given on Day 1. The tumors were measured at least once a week and their volume was calculated with the formula: tumor volume (mm^3)=0.5× (tumor width^2)(tumor length). The mean tumor volumes (±S.E.M.) for each treatment group were calculated having a maximum of 8-10 animals and a minimum of 6-8 animals to be included.
The 144580 breast patient-derived xenografts were subcutaneously passaged in vivo as fragments from animal to animal in nude (Nu/Nu) female mice. When the tumors reached a volume of 150 to 300 mm^3, they were staged to ensure uniformity of the tumor size among various treatment groups.

[4] = test system: 37622 patient-derived xenografts; conditions: 10 mg/kg, IV Q4dx4
Protocol: as §4
Several ADCs were tested in patient-derived Non-Small Cell Lung Cancer xenograft model of 37622 obtained in accordance with appropriate consent procedures. The 37622 patient-derived xenografts were subcutaneously passaged in vivo as fragments from animal to animal in nude (Nu/Nu) female mice. When the tumors reached a volume of 150 to 300 mm^3, they were staged to ensure uniformity of the tumor size among various treatment groups.

[5] = test system: N87 cell line xenograft tumors; assay: Bystander effect, immunohistochemistry (human IgG, pHH3) of N87 xenograft tumors; type: in vivo, mouse; conditions: single dose, T-DM1 6 mg/kg or T-vc0101 3 mg/kg, 96 hours
Description: Tumor sections were stained for human IgG to detect ADC bound to tumor cells and phospho-histone H3 (pHH3) to detect mitotic cells as a readout of the proposed mechanism of action for the payloads of both ADCs.

N87 tumors = assay: In vivo efficacy on parental N87 tumors in NSG mice; set-up: species or system mouse; conditions: 6 and 10 mg/kg, Q4Dx4, N87 model
Protocol: Mice were injected subcutaneously in the right flank with suspensions of either N87 or N87-TM cells (7.5×10^6 cells per injection, with 50% Matrigel). Mice were randomized into study groups when tumors reached ˜0.3 g (˜250 mm^3). […] Tumors were measured weekly and mass calculated as volume=(width×width×length)/2. Time-to-event analysis (tumor doubling) was conducted and significance evaluated by Log-rank (Mantel-Cox) test.

JIMT-1 breast xenografts = conditions: even at 6 mg/kg, IV Q4dx4
Protocol: as §4
To generate xenografts, nude (Nu/Nu) female mice were implanted subcutaneously with 5×10^6 JIMT-1 cells (DSMZ # ACC-589) in 50% Matrigel (BD Biosciences). When the tumors reached a volume of 200 to 250 mm^3, the tumors were staged to ensure uniformity of the tumor mass among various treatment groups.

[6] = test system: Her2-expressing cell lines BT474 and SKBR3; assay: ADCC assay (LDH release, NK-92 or human PBMC effector cells); type: cell-based; conditions: 1 μg/ml antibody or ADC, 6 hours
Protocol: In ADCC assays, Her2-expressing cell lines BT474 and SKBR3 were used as target cells while NK-92 cells (an interleukin-2 dependent natural killer cell line derived from peripheral blood mononuclear cells from a person by Conkwest) or human peripheral blood mononucleocytes (PBMC) isolated from the freshly drawn blood from a healthy donor (#179) were used as effector cells.
Target cells (BT474 or SKBR3) of 1×10^4 cells/100 μl/well were placed in 96-well plate and cultured overnight in RPMI1640 media at 37° C./5% CO2. […]
Assay plates were incubated at 37° C./5% CO2 for 6 hours and then equilibrated to room temperature. LDH release from cell lysis was measured using CytoTox-One™ reagent at an excitation wavelength of 560 nm and an emission wavelength of 590 nm. […]
“Experimental” corresponds to the signal measured in one of the condition described above.
“Effector spontaneous” corresponds to the signal measured in the presence of PBMC alone.
“Target spontaneous” corresponds to the signal measured in the presence of target cells alone.
“Target Maximum” corresponds to the signal measured in the presence of detergent-lysed target cells alone.

N87 gastric xenografts = assay: N87 gastric xenograft model; type: in vivo, mouse; conditions: IV Q4dx4
Protocol: as §4
When the tumors reached a volume of 250 to 450 mm^3, the tumors were staged to ensure uniformity of the tumor mass among various treatment groups.

[7] = read-out: Sensitivity to free payload (IC50), N87-T-DM1_Ms2
[8] = read-out: Sensitivity to free payload (IC50), N87-T-DM1_Ms7
[9] = read-out: Sensitivity to free payload (IC50), N87-T-DM1_Ms17

Compound: CC[C@H](C)[C@@H]([C@@H](CC(=O)N1CCC[C@H]1[C@H](OC)[C@@H](C)C(=O)N[C@@H](Cc1ccccc1)c1nccs1)OC)N(C)C(=O)[C@@H](NC(=O)C(C)(C)N)C(C)C [Aur-0101] (H-[Aib]V[Dil][Dolaproine]-Doe)
- IC50 (parental N87 cells): 0.0005 µM
- IC50 [1, 7]: 0.0004 µM
- IC50 [1, 8]: 0.0006 µM
- IC50 [1, 9]: 0.00028 µM

Compound: COc1cc2cc(c1Cl)N(C)C(=O)C[C@H](OC(=O)[C@H](C)N(C)C(=O)CCS)[C@]1(C)O[C@H]1[C@H](C)[C@@H]1C[C@@](O)(NC(=O)O1)[C@H](OC)/C=C/C=C(\C)C2 [DM1]
- sensitivity of N87-TM cells (in words) (N87-TM cells): retained sensitivity

Compound: CC[C@H](C)[C@@H]([C@@H](CC(=O)N1CCC[C@H]1[C@H](OC)[C@@H](C)C(=O)N[C@@H](Cc1ccccc1)c1nccs1)OC)N(C)C(=O)[C@@H](NC(=O)C(C)(C)N)C(C)C [compound 0101, 2-methylalanyl-N-[(3R,4S,5S)-3-methoxy-1-{(2S)-2-[(1R,2R)-1-methoxy-2-methyl-3-oxo-3-{[(1S)-2-phenyl-1-(1,3-thiazol-2-yl)ethyl]amino}propyl]pyrrolidin-1-yl}-5-methyl-1-oxoheptan-4-yl]-N-methyl-L-valinamide] (H-[Aib]V[Dil][Dolaproine]-Doe)
- sensitivity of N87-TM cells (in words) (N87-TM cells): retained sensitivity
- sensitivity of cells relapsed from T-DM1 treatment (in words) [1]: surprisingly sensitive; also recorded: not resistant

Compound: COc1cccc2c1C(=O)c1c(O)c3c(c(O)c1C2=O)C[C@@](O)(C(=O)CO)C[C@@H]3O[C@H]1C[C@H](N)[C@H](O)[C@H](C)O1 [doxorubicin]
- IC50 (parental N87 cells): 0.048 µM
- sensitivity of N87-TM cells (in words) (N87-TM cells): lack of cross-resistance
- IC50 [1, 7]: 0.046 µM
- IC50 [1, 8]: 0.079 µM
- IC50 [1, 9]: 0.034 µM
- sensitivity of cells relapsed from T-DM1 treatment (in words) [1]: No resistance

Compound: CC(=O)O[C@H]1C(=O)[C@@]2(C)[C@H]([C@H](OC(=O)c3ccccc3)[C@]3(O)C[C@H](OC(=O)[C@H](O)[C@@H](NC(=O)c4ccccc4)c4ccccc4)C(C)=C1C3(C)C)[C@]1(OC(C)=O)CO[C@@H]1C[C@@H]2O [paclitaxel]
- sensitivity of N87-TM cells (in words) (N87-TM cells): lack of cross-resistance

Compound: T-DM1
- tumor growth compared to vehicle [2]: no appreciable difference in tumor growth as compared to vehicle treated tumors
- IC80 (N87 cells): ~0.01 µM
- mice that responded to initial T-DM1 treatment (N87 xenografts): 17 out of 20
- tumor response [3]: ineffective
- sensitivity of cells relapsed from T-DM1 treatment (in words) [1]: resistant
- tumor response [4]: only provided some therapeutic benefit
- location of the majority of pHH3 positive tumor cells [5]: located near the ADC
- mice in which tumor doubling was prevented for at least 60 days (N87 tumors): > 50%
- tumor response (JIMT-1 breast xenografts): inactive
- ADCC activity (in words) [6]: conform the reported ADCC activities
- tumor response (N87 gastric xenografts; 10 mg/kg): complete regression of tumors
- tumor response (N87 gastric xenografts; 1 and 3 mg/kg): delayed tumor growth
